This note sets out measurements from patent US8247170B2, “Detection of penicillin tolerance in Group B Streptococcus: single nucleotide polymorphisms in penicillin binding protein 4” (priority 2008, dated 2012).

This assay concerns GBS laboratory strains. In words: Penicillin induced lysis (OD600 change). In kind it is cell-based, Group B Streptococcus. The conditions noted are these: 100×MIC90 Penicillin G 22 hours. The method, then: In this series of study, the three GBS laboratory strains (i.e., A909, NEM316, and O90R) were cultured for 18 hours at 37° C. in THB. Subcultures in THB were subsequently grown to exponential phase (OD600˜0.3) at 37° C. Cells were treated with 100×MIC90 Penicillin G for an additional 22 hours. OD600 of these cell cultures before (O.D. initial) and after penicillin treatment (O.D. experimental) was measured (N=3). The values of O.D. experimental were subtracted from O.D. initial. (See FIG. 2).
(I) Bacterial Strains and Culture Conditions. GBS strains A909 (serotype IA), 515 (serotype IA), NEM316 (serotype III), COHI (serotype III), 2603V/R (serotype V) and O90R (non-typable) were used in this study. E. coli Top10 cells were used for the recombination experiments. GBS was cultured in Todd Hewitt broth (THB) or Tryptic Soy 5% sheep blood (TS) media and E. coli in Luria-broth (LB) medium or agar. Antibiotics were used at the following concentrations: for GBS—penicillin G (MIC90 0.06 μg ml^−1), ampicillin (MIC90 0.12 μg ml^−1), vancomycin (MIC90 2 μg ml^−1), cefazolin (MIC90 1 μg ml^−1) and chloramphenicol (5 μg ml^−1); for E. coli—ampicillin (50 μg ml^−1) and chloramphenicol (5 μg ml^−1). Both GBS and E. coli cultures were grown at 37° C. (II) Tolerance Using the MBC:MIC Ratio Method. Three GBS laboratory strains (i.e., A909, NEM316, and O90R) were cultured overnight for 18 h at 37° C. in THB. Subcultures in THB were subsequently grown to exponential phase (OD600˜0.3; i.e. 5×10^5 cfu/ml) at 37° C. Cell cultures were then exposed to different concentrations of antibiotics (Penicillin G, Ampicillin, Cefozolin or Vancomycin). […] Cell cultures were allowed to re-grow for an additional 24 h at 37° C. before the OD600 was measured. […] The initial (in.) cellular ATP concentration ([ATP]) was measured using the ENLITEN (Promega) luciferase based reaction kit. […] The experimental (exp.) cellular ATP was extracted and the concentration was measured as stated above. […]

With `CC1(C)S[C@@H]2[C@H](NC(=O)Cc3ccccc3)C(=O)N2[C@H]1C(=O)O` [Penicillin G], the “change in OD600 (lysis, FIG. 2)” value reads like this: (GBS strain A909) “decrease in OD”; (GBS strain NEM316) “did not”; (GBS strain O90R) “did not”.
